The values that follow come from ChEMBL document CHEMBL5241078, “Emerging trends of receptor-mediated tumor targeting peptides: A review with perspective from molecular imaging modalities” (Eur J Med Chem, 2021).

For orientation: IC50 means the concentration that inhibits the measured activity by half.

The test has as its target T1, Gastrin/cholecystokinin type B receptor (Homo sapiens, UniProt P32239).
T1 sequence (P32239 whole entry): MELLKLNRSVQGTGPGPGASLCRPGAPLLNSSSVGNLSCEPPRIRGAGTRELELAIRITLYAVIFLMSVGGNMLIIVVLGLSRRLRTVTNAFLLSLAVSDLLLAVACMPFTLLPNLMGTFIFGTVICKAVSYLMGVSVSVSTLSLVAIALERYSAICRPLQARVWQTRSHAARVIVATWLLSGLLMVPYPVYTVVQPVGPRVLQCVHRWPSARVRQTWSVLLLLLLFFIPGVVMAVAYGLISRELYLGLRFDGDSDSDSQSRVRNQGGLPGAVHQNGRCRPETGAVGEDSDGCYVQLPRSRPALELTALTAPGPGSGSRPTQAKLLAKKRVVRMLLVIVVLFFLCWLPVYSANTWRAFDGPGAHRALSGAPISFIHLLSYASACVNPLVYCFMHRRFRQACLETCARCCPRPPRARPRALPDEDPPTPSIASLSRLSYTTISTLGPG
In words: Binding affinity to human CCK2R expressed in human A-431 cells. In kind it is cell-based.

The structures appear in SMILES notation.

Molecule `CSCCC[C@H](NC(=O)[C@H](Cc1c[nH]c2ccccc12)NC(=O)[C@H]1CCCCNC(=O)[C@H](NC(=O)c2ccc(NN)nc2)CCC(=O)N[C@@H](C)C(=O)N[C@@H](Cc2ccc(O)cc2)C(=O)N1)C(=O)N[C@@H](CC(=O)O)C(=O)N[C@@H](Cc1ccccc1)C(N)=O` yielded an IC50 of 2.54 nM.

`CCCCC[C@H](NC(=O)[C@H](Cc1c[nH]c2ccccc12)NC(=O)[C@H]1CCCCNC(=O)[C@H](NC(=O)c2ccc(NN)nc2)CCC(=O)N[C@@H](C)C(=O)N[C@@H](Cc2ccc(O)cc2)C(=O)N1)C(=O)N[C@@H](CC(=O)O)C(=O)N[C@@H](Cc1ccccc1)C(N)=O` showed an IC50 of 3.23 nM. The IC50 values of the last two molecules are within 1.5-fold of each other.
